The numbers were not newly measured in patent US20100189788A1 (Teva Pharmaceutical Industries, Ltd., priority 2009, published 2010), which cites them from elsewhere.

For the data set the following is noted: such as hexane toluene and ethylacetate; in words.

For the compound `C#CCN[C@@H]1CCc2ccccc21` [rasagiline, R(+)-N-propargyl-1-aminoindan], the “solubility in non-polar organic solvents” value was “very soluble”.
